# Assay results published in patent publication US20210188856A1, “CRYSTAL FORM OF HYDROCHLORIDE OF PYRAZOLOHETEROARYL DERIVATIVE AND PREPARATION METHOD” (JIANGSU HENGRUI MEDICINE CO., LTD., priority 2018, published 2021).
# Tests used:
# CYP3A4 [1] = biological target: T1, CYP3A4 (Homo sapiens, UniProt P08684); assay: Inhibition of testosterone metabolite site of CYP3A4 in human liver microsome; assay type: in vitro ADME
# T1 construct: CYP3A4 in human liver microsome; tissue Corning Gentest; host or cells: human liver microsomes
# Protocol: The effect of the compound represented by formula (I) on the enzyme activity of testosterone metabolite site of CYP3A4 in human liver microsome was determined by the following experimental method:
# (§1) 100 mM PBS buffer was formulated, which was then used to formulate 2.5 mg/mL microsome solution and 5 mM NADPH solution. The 5× concentration of the compound working solution was diluted with PBS gradient (150, 50, 15, 5, 1.5, 0.15, 0.015, 0 μM). The 5× concentration of ketoconazole working solution was diluted with PBS gradient (150, 50, 15, 5, 1.5, 0.15, 0.015, 0 μM). […] working solution was diluted with PBS to a concentration of 50 μM.
# (§2) 20 μL of the 2.5 mg/mL microsome solution, 20 μL of the 50 μM testosterone working solution, 20 μL of MgCl2 solution and 20 μL of the compound working solution (150, 50, 15, 5, 1.5, 0.15, 0.015, 0 μM, different reaction systems for each concentration) were taken respectively and mixed well. For the positive control group, the compound was replaced with the same concentration of ketoconazole. The mixture together with the 5 mM NADPH solution was pre-incubated at 37° C. for 5 minutes. […] 80 μL of the supernatant was taken and analyzed by LC-MS/MS.
# The data was calculated by Graphpad Prism to obtain the IC50 value of the compound on the testosterone metabolite site of CYP3A4.
# human TLR8 = biological target: T2, human TLR8 (Homo sapiens, UniProt Q9NR97); assay: Agonistic effect on human TLR8 (HEK-Blue hTLR8 cells); assay type: cell-based
# T2 construct: host or cells: HEK-Blue hTLR8 (HEK293-derived) stably transfected cells
# T2 sequence (Q9NR97 27-1041): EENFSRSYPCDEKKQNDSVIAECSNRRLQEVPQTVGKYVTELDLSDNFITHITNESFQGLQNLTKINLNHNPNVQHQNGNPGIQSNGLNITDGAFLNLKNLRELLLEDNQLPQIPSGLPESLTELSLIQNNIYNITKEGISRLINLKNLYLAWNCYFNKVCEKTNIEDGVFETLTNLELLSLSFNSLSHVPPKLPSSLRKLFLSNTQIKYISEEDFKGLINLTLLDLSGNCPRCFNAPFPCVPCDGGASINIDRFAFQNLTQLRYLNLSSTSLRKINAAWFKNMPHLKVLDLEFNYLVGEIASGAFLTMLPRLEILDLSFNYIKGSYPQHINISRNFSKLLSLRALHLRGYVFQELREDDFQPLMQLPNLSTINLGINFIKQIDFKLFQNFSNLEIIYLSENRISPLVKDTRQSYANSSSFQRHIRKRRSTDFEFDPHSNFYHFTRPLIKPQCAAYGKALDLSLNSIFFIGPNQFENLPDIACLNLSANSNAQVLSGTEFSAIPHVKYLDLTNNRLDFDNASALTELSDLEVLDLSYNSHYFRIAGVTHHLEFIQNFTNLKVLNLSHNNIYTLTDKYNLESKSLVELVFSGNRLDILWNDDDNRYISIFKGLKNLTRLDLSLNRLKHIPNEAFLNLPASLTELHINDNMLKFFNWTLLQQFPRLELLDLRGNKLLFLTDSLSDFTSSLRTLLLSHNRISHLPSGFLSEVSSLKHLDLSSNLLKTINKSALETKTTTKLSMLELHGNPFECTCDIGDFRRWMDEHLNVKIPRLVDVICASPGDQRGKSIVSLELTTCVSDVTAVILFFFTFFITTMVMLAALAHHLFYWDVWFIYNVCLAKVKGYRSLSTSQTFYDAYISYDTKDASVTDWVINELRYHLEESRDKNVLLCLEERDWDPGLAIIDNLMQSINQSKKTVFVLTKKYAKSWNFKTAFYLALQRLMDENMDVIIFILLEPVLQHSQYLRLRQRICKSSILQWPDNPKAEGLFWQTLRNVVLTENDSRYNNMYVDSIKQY
# Protocol: The agonistic effect of the compound represented by formula (I) on the hTLR8 protein expressed in HEK-Blue™ hTLR8 stably transfected cells was determined by the following experimental method:
# A bag of HEK-Blue detection dry powder was dissolved in 50 mL of water free of endotoxin, and the solution was then placed in an incubator at 37° C. for 10 minutes followed by sterile filtration to prepare a HEK-Blue detection medium. The compound was firstly formulated into a 20 mM stock solution, then diluted with pure DMSO to a maximum concentration of 6×10^6 nM, and a total of 10 points were obtained by a 3-fold gradient dilution. The compound was firstly diluted 20-fold with the medium, then 20 μL of the diluted compound was added to each well.
# The supernatant was removed from the HEK-Blue™ hTLR8 cells, to which 2-5 mL of pre-warmed PBS was then added. The cells were placed in an incubator for 1-2 minutes, gently pipetted, and counted by trypan blue staining. The cells were re-suspended in the HEK-Blue detection medium and the concentration was adjusted to 2.2×10^5 cells/mL. 180 μL of cells was added to the above 96-well plate added with 20 μL of the compound, and incubated at 37° C. for 6-16 hours.
# The plate was read with a microplate reader at a wavelength of 620 nm. The corresponding OD values were obtained, and the EC50 value of the compound was calculated by Graphpad Prism.
# CYP3A4 [2] = biological target: T1, CYP3A4; assay: Inhibition of midazolam metabolite site of CYP3A4 in human liver microsome; assay type: in vitro ADME
# Protocol: The effect of the compound represented by formula (I) on the enzyme activity of midazolam metabolite site of CYP3A4 in human liver microsome was determined by the following experimental method:
# as §1
# as §2, with “[…],” for “20 μL of the 50 μM testosterone working solution,”, “minutes. After 5 minutes, 20 μL of NADPH was added to each well, the reaction was started and incubated for 30 minutes.” for “minutes.”
# The data was calculated by Graphpad Prism to obtain the IC50 value of the compound on the midazolam metabolite site of CYP3A4.
# T1 sequence (P08684 whole entry): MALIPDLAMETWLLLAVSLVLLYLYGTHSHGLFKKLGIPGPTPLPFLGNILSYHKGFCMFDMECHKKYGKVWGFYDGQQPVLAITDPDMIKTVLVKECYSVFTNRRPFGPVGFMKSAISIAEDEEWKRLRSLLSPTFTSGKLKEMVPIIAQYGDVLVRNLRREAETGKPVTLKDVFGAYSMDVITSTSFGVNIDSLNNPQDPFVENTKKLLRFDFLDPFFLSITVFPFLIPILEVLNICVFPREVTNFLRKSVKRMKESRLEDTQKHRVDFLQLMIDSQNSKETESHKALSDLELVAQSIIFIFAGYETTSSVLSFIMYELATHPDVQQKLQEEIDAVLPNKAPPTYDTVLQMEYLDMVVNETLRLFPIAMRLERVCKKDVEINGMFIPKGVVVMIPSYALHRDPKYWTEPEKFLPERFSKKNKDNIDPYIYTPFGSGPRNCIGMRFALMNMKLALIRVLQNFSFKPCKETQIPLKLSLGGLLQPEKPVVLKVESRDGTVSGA
structure (smiles),measurement,setting,value
"CCCCOc1nc(N)c2cnn(Cc3ccc(CN4CCCC4)cc3)c2n1 [compound represented by formula (I), 6-Butoxy-1-(4-(pyrrolidin-1-ylmethyl)benzyl)-1H-pyrazolo[3,4-d]pyrimidin-4-amine]",inhibitory effect on testosterone metabolite site of CYP3A4 (in words),CYP3A4 [1],weak inhibitory effect
same,IC50,CYP3A4 [1]; testosterone probe,4 µM
same,agonistic effect on human TLR8 (in words),human TLR8; HEK-Blue hTLR8 cells,no agonistic effect
same,selectivity for TLR7 over TLR8 (in words),human TLR8; from TLR7 and TLR8 results,high selectivity
same,inhibitory effect on midazolam metabolic site of CYP3A4 (in words),CYP3A4 [2],no inhibitory effect
same,IC50,CYP3A4 [2]; midazolam probe,14 µM
